In patent US20080268439A1, “ASSAY SYSTEMS AND METHODS FOR DETECTING MOLECULES THAT INTERACT WITH SK2 CHANNELS” (priority 2007, published 2008):

Tests used:
[1] = molecular target: T1, hSK2A^+ expressed in mammalian tsA201 cells (Homo sapiens, UniProt Q9H2S1, DUP58-58); test: Membrane potential sensitive dye fluorescence (FLIPR) assay in tsA201 cells stably expressing SK2; assay type: cell-based; settings: FIG. 9; for Hill coefficient (nH): inhibition of ATP/Tg induced decrease in fluorescence
T1 construct: other: 100 nM to 1 mM added online; normalized to maximum fluorescence a; Hill coefficient (nH); hSK2A^+ was 1743 nucleotides in length and encoded a polypeptide of 580 amino acids
Procedure: (§1) These cells were plated in a black optical bottom 384 well assay plate at a density of 8×10^6 cells/plate. […] After a 30-minute incubation in the voltage sensitive dye, the cell plate was transferred to a fluorescence plate reader (FLIPR384™, Molecular Devices), and ten baseline fluorescence readings were obtained.
(§2) In FIG. 8, time is represented in seconds on the X-axis, and fluorescence is represented in au on the Y-axis. ATP/Tg addition is indicated at time I, and CsCl addition is indicated at time II.
(§3) The magnitude of the ATP/Tg induced decrease in fluorescence was measured in the presence of each of a panel of known SK2 inhibitors. […]

[2] = system: hSK2A^+ expressed in mammalian tsA201 cells; test: as above; assay type: cell-based, human; settings: 10 minutes incubation
Procedure: as §1, §2, §3

[3] = molecular target: intermediate conductance Ca^2+-activated K^+ channels (Homo sapiens, UniProt O15554); settings: cited from earlier work
Chain of intermediate conductance Ca^2+-activated K^+ channels (O15554 whole entry): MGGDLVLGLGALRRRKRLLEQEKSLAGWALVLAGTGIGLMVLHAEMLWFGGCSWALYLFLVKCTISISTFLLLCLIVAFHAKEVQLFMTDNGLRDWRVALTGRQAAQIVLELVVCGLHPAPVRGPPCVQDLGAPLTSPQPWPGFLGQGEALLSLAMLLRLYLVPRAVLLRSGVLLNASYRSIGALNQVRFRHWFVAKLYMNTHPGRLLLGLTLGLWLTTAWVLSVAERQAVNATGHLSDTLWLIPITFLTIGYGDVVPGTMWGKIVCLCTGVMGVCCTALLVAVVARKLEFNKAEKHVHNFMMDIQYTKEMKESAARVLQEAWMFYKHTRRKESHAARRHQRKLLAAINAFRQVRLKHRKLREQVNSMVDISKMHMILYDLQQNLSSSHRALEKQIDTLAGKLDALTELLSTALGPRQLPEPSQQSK

T1 sequence (Q9H2S1 with tags, fused parts or gaps DUP58-58): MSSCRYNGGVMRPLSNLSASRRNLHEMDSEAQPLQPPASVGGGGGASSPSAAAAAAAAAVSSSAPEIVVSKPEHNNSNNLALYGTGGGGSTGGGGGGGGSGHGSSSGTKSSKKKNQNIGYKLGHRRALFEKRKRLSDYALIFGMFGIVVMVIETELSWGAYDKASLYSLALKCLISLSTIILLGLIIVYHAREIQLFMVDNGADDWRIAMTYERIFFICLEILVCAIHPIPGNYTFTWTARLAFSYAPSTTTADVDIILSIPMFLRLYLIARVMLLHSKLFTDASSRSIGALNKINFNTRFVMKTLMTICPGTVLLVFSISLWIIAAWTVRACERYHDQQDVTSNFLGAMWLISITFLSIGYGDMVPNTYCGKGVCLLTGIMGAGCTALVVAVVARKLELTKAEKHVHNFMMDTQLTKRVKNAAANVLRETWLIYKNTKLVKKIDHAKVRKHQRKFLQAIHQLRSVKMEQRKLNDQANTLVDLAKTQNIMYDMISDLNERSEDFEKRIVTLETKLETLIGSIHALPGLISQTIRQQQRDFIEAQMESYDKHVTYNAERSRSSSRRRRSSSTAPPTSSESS

Row | Compound | binding affinity of the inhibitors tested (rank order) [1] | effect on the fluorescence signals (responses to ATP/Tg and Cs+) ([2]; tested at 833 nM) | also measured
1 | O=c1[nH]c2cc(C(F)(F)F)ccc2n1-c1cc(C(F)(F)F)ccc1O [NS1619] | apamin>scyllatoxin>NS1619>quinidine>bicuculline | – | –
2 | Nc1cc(N2CCCCC2)nc(N)[n+]1[O-] [minoxidil] | – | – | effect on the fluorescence signals (responses to ATP/Tg and Cs+) ([2]; tested at 1.43 μM): no effect
3 | CC(N/C(=N\C#N)Nc1ccncc1)C(C)(C)C (centres unmarked) [pinacidil] | – | – | effect on the fluorescence signals (responses to ATP/Tg and Cs+) ([2]; tested at 286 μM): no effect
4 | α-dendrotoxin (QPRRKLCILHRNPGRCYDKIPAFYYNQKKKQCERFDWSGCGGNSNRFKTIEECRRTCIG) | – | no effect | –
5 | C[N+]1(C)CCc2cc3c(cc2[C@H]1[C@@H]1OC(=O)c2c1ccc1c2OCO1)OCO3.[Br-] [bicuculline methobromide] | apamin>scyllatoxin>NS1619>quinidine>bicuculline | – | Hill coefficient (nH) [1]: 1
6 | C=C[C@H]1C[N@@]2CC[C@H]1C[C@@H]2[C@@H](O)c1ccnc2ccc(OC)cc12 [quinidine] | apamin>scyllatoxin>NS1619>quinidine>bicuculline | – | Hill coefficient (nH) [1]: 0.6
7 | iberiotoxin: inhibitor of the IK channel; isolated from Mesobuthus taniulus (QFTDVDCSVSKECWSVCKDLFGVDRGKCMGKKCRCYQ) | – | no effect | –
8 | CCn1c(=O)[nH]c2ccccc21 [1-EBIO, 1-ethyl-2-benzimidazolinone] | – | – | effect on intermediate conductance Ca2+-activated K+ channels [3]: enhance activity
9 | noxiustoxin: inhibitor of Ca2+- and voltage activated channels (TIINVKCTSPKQCSKPCKELYGSSAGAKCMNGKCKCYNN) | – | no effect | –
